Assay results reported in US11154563B2, “Immunoproteasome inhibitors” (Principia Biopharma Inc., priority 2017, dated 2021).

Assays:
[1] = target: constitutive proteasome β5c unit (Homo sapiens, UniProt P20618+P28074); experiment: Caliper-based proteasome enzymatic activity assay, β5c; assay type: biochemical; conditions: human recombinant constitutive proteasome 0.3 nM, FAM-peptide substrate 1 μM, 3 h at rt; read-out: β5c subunit IC50
Experimental: (§1) A Caliper-based proteasome assay (Caliper Life Sciences, Hopkinton, Mass.) was used to measure inhibition of the immunoproteasome LMP7/B5i subunit, the immunoproteasome LPM2/β1i subunit, and the constitutive proteasome β5c unit for a compound of Formula (I). For LMP7 and β5c, serial dilutions of test compounds were incubated with either human recombinant immunoprotcasome or constitutive proteasome (0.3 nM enzyme) and a carboxyfluorescein (FAM)-labeled peptide substrate FAM-TYETFKSIMKKSPF-NH2 (1 μM) at it for 3 h. The reaction was then terminated with a buffer containing the known proteasome inhibitor carfilzomib at a concentration of 5 uM. For LMP2, serial dilutions of test compounds were incubated with human recombinant immunoproteasome proteasome (0.3 nM enzyme) and a carboxyfluorescein (FAM)-labeled peptide substrate FAM-[…]-NH2 (1 μM) at rt for 2 h. The reaction was then terminated with a buffer containing the known proteasome inhibitor ixazomib at a concentration of 6.7 uM. The reaction buffer was 20 mM Hepes pH 7.4, 0.01% bovine serum albumin, 0.015% SDS, 0.5 mM EDTA, 1%0/DMSO. The peptide cleavage reaction product was quantified on a Caliper LabChip 3000. Percent inhibition was calculated for each compound dilution and the concentration that produced 50% inhibition was calculated. This value is presented as the IC50.

[2] = target: immunoproteasome LMP7/B5i subunit (Homo sapiens, UniProt P20618+P28062); experiment: Caliper-based proteasome enzymatic activity assay, LMP7; assay type: biochemical; conditions: human recombinant immunoproteasome 0.3 nM, FAM-peptide substrate 1 μM, 3 h at rt
Experimental: as §1

IC50 [1] [µM]	IC50 [2] [µM]	Compound
0.288	0.0027	Cc1ccc(C[C@H](NC(=O)OC[C@H]2COCCN2C(=O)C(C#N)=CC(C)(C)C)B(O)O)cc1 [Example 73, ((R)-1-(((((R)-4-(2-cyano-4,4-dimethylpent-2-enoyl)morpholin-3-yl)methoxy)carbonyl)amino)-2-(p-tolyl)ethyl)boronic acid]
1.02	0.0011	Cc1ccc(C[C@H](NC(=O)OC[C@H]2[C@H]3C[C@H]3CN2C(=O)C(C#N)=CC(C)(C)N2CCOCC2)B(O)O)cc1 [Example 75]
0.677	0.0012	Cc1ccc(C[C@H](NC(=O)OC[C@H]2[C@H]3C[C@H]3CN2C(=O)C(C#N)=CC(C)(C)C)B(O)O)cc1 [Example 76]
> 5	0.013	COc1cccc(C[C@H](NC(=O)OC[C@H]2CCCCN2C(=O)C(C#N)=CC(C)(C)C)B(O)O)c1 [Example 77, ((R)-1-(((((R)-1-(2-cyano-4,4-dimethylpent-2-enoyl)piperidin-2-yl)methoxy)carbonyl)amino)-2-(3-methoxyphenyl)ethyl)boronic acid]
1.27	0.0048	COc1ccc(C[C@H](NC(=O)OC[C@H]2CCCCN2C(=O)C(C#N)=CC(C)(C)N2CCC(F)(F)C2)B(O)O)cc1 [Example 78, ((R)-1-(((((R)-1-(2-cyano-4-(3,3-difluoropyrrolidin-1-yl)-4-methylpent-2-enoyl)piperidin-2-yl)methoxy)carbonyl)amino)-2-(4-methoxyphenyl)ethyl)boronic acid]
0.578	0.002	CC(C)(C=C(C#N)C(=O)N1CCCC[C@@H]1COC(=O)N[C@@H](Cc1ccc(Cl)cc1)B(O)O)N1CCC(F)(F)C1 [Example 79, ((R)-2-(4-chlorophenyl)-1-(((((R)-1-(2-cyano-4-(3,3-difluoropyrrolidin-1-yl)-4-methylpent-2-enoyl)piperidin-2-yl)methoxy)carbonyl)amino)ethyl)boronic acid]
1.51	0.002	CN(CC(F)F)C(C)(C)C=C(C#N)C(=O)N1CCCC[C@@H]1COC(=O)N[C@@H](Cc1ccccc1)B(O)O [Example 80, ((R)-1-(((((R)-1-(2-cyano-4-((2,2-difluoroethyl)(methyl)amino)-4-methylpent-2-enoyl)piperidin-2-yl)methoxy)carbonyl)amino)-2-phenylethyl)boronic acid]
3.84	0.0044	Cc1ccc(C[C@H](NC(=O)OC[C@@H]2CCCCCN2C(=O)C(C#N)=CC(C)(C)N2CCC(F)(F)C2)B(O)O)cc1 [Example 81, ((R)-1-(((((S)-1-(2-cyano-4-(3,3-difluoropyrrolidin-1-yl)-4-methylpent-2-enoyl)azepan-2-yl)methoxy)carbonyl)amino)-2-(p-tolyl)ethyl)boronic acid]
0.445	0.0029	Cc1ccc(C[C@H](NC(=O)OC[C@H]2CCCCCN2C(=O)C(C#N)=CC(C)(C)N2CCC(F)(F)C2)B(O)O)cc1 [Example 84, ((R)-1-(((((R)-1-(2-cyano-4-(3,3-difluoropyrrolidin-1-yl)-4-methylpent-2-enoyl)azepan-2-yl)methoxy)carbonyl)amino)-2-(p-tolyl)ethyl)boronic acid]
1.01	0.013	CN(C)C/C=C/C(=O)N1C[C@@H]2C[C@@H]2[C@@H]1COC(=O)N[C@@H](Cc1coc2ccccc12)B(O)O [Example 87, ((R)-2-(benzofuran-3-yl)-1-(((((1S,2R,5R)-3-((E)-4-(dimethylamino)but-2-enoyl)-3-azabicyclo[3.1.0]hexan-2-yl)methoxy)carbonyl)amino)ethyl)boronic acid]
0.263	0.0071	CC#CC(=O)N1C[C@@H]2C[C@@H]2[C@@H]1COC(=O)N[C@@H](Cc1coc2ccccc12)B(O)O [Example 88, ((R)-2-(benzofuran-3-yl)-1-(((((1S,2R,5R)-3-(but-2-ynoyl)-3-azabicyclo[3.1.0]hexan-2-yl)methoxy)carbonyl)amino)ethyl)boronic acid]
1.85	0.073	C=CC(=O)N1C[C@H](F)C[C@@H]1COC(=O)N[C@@H](Cc1ccccc1)B(O)O [Example 89, ((R)-1-(((((2R,4R)-1-acryloyl-4-fluoropyrrolidin-2-yl)methoxy)carbonyl)amino)-2-phenylethyl)boronic acid]
0.32	0.0025	C=CC(=O)N1CC(F)(F)C[C@@H]1COC(=O)N[C@@H](Cc1coc2ccccc12)B(O)O [Example 91, ((R)-1-(((((R)-1-acryloyl-4,4-difluoropyrrolidin-2-yl)methoxy)carbonyl)amino)-2-(benzofuran-3-yl)ethyl)boronic acid]
2.24	0.0019	Cc1ccc(C[C@H](NC(=O)OC[C@H]2[C@H]3C[C@H]3CN2C(=O)C(C#N)=CC2(C)CCOCC2)B(O)O)cc1 [Example 92, ((R)-1-(((((1S,2R,5R)-3-(2-cyano-3-(4-methyltetrahydro-2H-pyran-4-yl)acryloyl)-3-azabicyclo[3.1.]hexan-2-yl)methoxy)carbonyl)amino)-2-(p-tolyl)ethyl)boronic acid]
0.165	0.003	C=CC(=O)N1CCOC[C@@H]1COC(=O)N[C@@H](Cc1coc2ccccc12)B(O)O [Example 93, ((R)-1-(((((R)-4-acryloylmorpholin-3-yl)methoxy)carbonyl)amino)-2-(benzofuran-3-yl)ethyl)boronic acid]
1.76	0.002	CC(C)(C=C(C#N)C(=O)N1CCOC[C@@H]1COC(=O)N[C@@H](Cc1ccccc1)B(O)O)N1CCC(F)(F)C1 [Example 94, ((R)-1-(((((R)-4-(2-cyano-4-(3,3-difluoropyrrolidin-1-yl)-4-methylpent-2-enoyl)morpholin-3-yl)methoxy)carbonyl)amino)-2-phenylethyl)boronic acid]
3.39	0.037	C=CC(=O)N1C[C@@H]2C[C@@H]2[C@@H]1COC(=O)N[C@@H](Cc1ccc(C)cc1)B(O)O [Example 95, ((R)-1-(((((1S,2R,5R)-3-acryloyl-3-azabicyclo[3.1.0]hexan-2-yl)methoxy)carbonyl)amino)-2-(p-tolyl)ethyl)boronic acid]
> 5	0.0027	COc1cccc(C[C@H](NC(=O)OC[C@H]2CCCCN2C(=O)C(C#N)=CC(C)(C)N2CCC(F)(F)C2)B(O)O)c1 [Example 96]
3.97	0.005	CN(CC(F)(F)F)C(C)(C)C=C(C#N)C(=O)N1CCCC[C@@H]1COC(=O)N[C@@H](Cc1ccccc1)B(O)O [Example 97, ((R)-1-(((((R)-1-(2-cyano-4-methyl-4-(methyl(2,2,2-trifluoroethyl)amino)pent-2-enoyl)piperidin-2-yl)methoxy)carbonyl)amino)-2-phenylethyl)boronic acid]
3.27	0.0035	CC(C)(C=C(C#N)C(=O)N1CCOC[C@@H]1COC(=O)N[C@@H](CCc1ccccc1)B(O)O)N1CCC(F)(F)C1 [Example 98, ((R)-1-(((((R)-4-(2-cyano-4-(3,3-difluoropyrrolidin-1-yl)-4-methylpent-2-enoyl)morpholin-3-yl)methoxy)carbonyl)amino)-3-phenylpropyl)boronic acid]
1.99	0.068	C=CC(=O)N1C[C@@H]2C[C@@H]2[C@@H]1COC(=O)N[C@@H](Cc1ccccc1)B(O)O [Example 99, ((R)-1-(((((1S,2R,5R)-3-acryloyl-3-azabicyclo[3.1.0]hexan-2-yl)methoxy)carbonyl)amino)-2-phenylethyl)boronic acid]
